Data reported in patent US9980943B2, “Methods of treating muscular dystrophy” (BOARD OF REGENTS OF THE NEVADA SYSTEM OF HIGHER EDUCATION, …, priority 2013, dated 2018).

Assays:
Assay type in all cases: cell-based, mouse
[1] = system: α7 integrin (LacZ reporter in α7βgal+/− myoblasts); test: Myoblast α7+/LacZ integrin FDG assay (Burkin assay in myoblasts, 96-well); settings: α7+/LacZ myoblasts, 96-well
[2] = system: α7 integrin (LacZ reporter in α7+/LacZ myotubes); test: Myotube α7 integrin FDG assay (Burkin assay in myotubes, 96-well); settings: myotubes
[3] = system: β-galactosidase in CMV-LacZ C2C12 myotubes; test: CMV-LacZ secondary screen in C2C12 myotubes (β-Gal stabilizing assay); settings: for CMV-LACZ in Myotubes, signal relative to DMSO: C2C12 CMV-LacZ myotubes, fold relative to DMSO; for CMV-LACZ in Myotubes (β-galactosidase activity relative to DMSO): CMV-LacZ C2C12 myotubes, 96-well format
Summary of the method: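 A secondary screen identifies compounds that stabilize β-gal independently of the native promoter, using CMV-LacZ C2C12 cells. Curves span 0.5–40 μM at six levels, in duplicate.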

Compound	Burkin Assay in Myoblasts, signal relative to DMSO ([1]; 0.5 uM)	Burkin Assay in Myoblasts, signal relative to DMSO ([1]; 1 uM)	Burkin Assay in Myoblasts, signal relative to DMSO ([1]; 5 uM)	Burkin Assay in Myoblasts, signal relative to DMSO ([1]; 10 uM)	Burkin Assay in Myoblasts, signal relative to DMSO ([1]; 20 uM)	Burkin Assay in Myoblasts, signal relative to DMSO ([1]; 40 uM)	Burkin Assay in Myotubes, α7 integrin LacZ reporter signal relative to DMSO ([2]; 0.5 uM)	Burkin Assay in Myotubes, α7 integrin LacZ reporter signal relative to DMSO ([2]; 1 uM)	Burkin Assay in Myotubes, α7 integrin LacZ reporter signal relative to DMSO ([2]; 5 uM)	Burkin Assay in Myotubes, α7 integrin LacZ reporter signal relative to DMSO ([2]; 10 uM)	Burkin Assay in Myotubes, α7 integrin LacZ reporter signal relative to DMSO ([2]; 20 uM)	Burkin Assay in Myotubes, α7 integrin LacZ reporter signal relative to DMSO ([2]; 40 uM)	CMV-LACZ in Myotubes, signal relative to DMSO ([3]; 5 uM)	CMV-LACZ in Myotubes, signal relative to DMSO ([3]; 10 uM)	CMV-LACZ in Myotubes, signal relative to DMSO ([3]; 20 uM)	CMV-LACZ in Myotubes, signal relative to DMSO ([3]; 40 uM)	Burkin Assay in Myoblasts, value relative to DMSO ([1]; 0.5 uM)	Burkin Assay in Myoblasts, value relative to DMSO ([1]; 1 uM)	Burkin Assay in Myoblasts, value relative to DMSO ([1]; 5 uM)	Burkin Assay in Myoblasts, value relative to DMSO ([1]; 10 uM)	other results
CC(=O)Nc1ccc(N(C(=O)c2cnccn2)C(C(=O)NC2CCCCC2)c2ccc(F)cc2)cc1 (centres unmarked) [MLS001225507-01]	1.0374	0.9444	0.9036	0.8292	0.8685	0.888	0.9321	0.6741	1.013	1.002	1.175	0.9539	1.04	0.994	0.8655	0.8805	–	–	–	–	–
CCCCCCC1CC(=O)NC(=O)N1 (centres unmarked) [MLS000768008-01]	0.9886	0.9618	0.8976	0.8768	0.7837	0.8787	1.073	1.179	1.11	1.273	1.098	1.2867	0.8276	0.9644	1.028	0.9429	–	–	–	–	–
Cc1cc(C)nc(NC(=O)c2ccc(Cl)cc2Cl)n1 [MLS000706349-01]	1.086	0.9797	0.8593	0.8434	0.8584	0.6533	1.193	1.008	0.9738	0.9294	1.073	0.9239	0.9465	0.9553	1.0245	1.1355	–	–	–	–	–
O=C(CSc1nnc(C2CC2)n1C1CC1)c1cccs1 [MLS002161757-01]	–	–	–	–	–	–	–	–	–	–	–	–	–	–	–	–	0.9614	0.892	0.9113	0.9135	Burkin Assay in Myoblasts, value relative to DMSO ([1]; 20 uM): 1.009; Burkin Assay in Myoblasts, value relative to DMSO ([1]; 40 uM): 1.151; Burkin Assay in Myotubes (signal relative to DMSO) ([2]; 0.5 uM): 0.8459; Burkin Assay in Myotubes (signal relative to DMSO) ([2]; 1 uM): 1.07; Burkin Assay in Myotubes (signal relative to DMSO) ([2]; 5 uM): 1.092; Burkin Assay in Myotubes (signal relative to DMSO) ([2]; 10 uM): 1.06; Burkin Assay in Myotubes (signal relative to DMSO) ([2]; 20 uM): 0.9795; Burkin Assay in Myotubes (signal relative to DMSO) ([2]; 40 uM): 1.146; CMV-LACZ in Myotubes (β-galactosidase activity relative to DMSO) ([3]; 5 uM): 0.919; CMV-LACZ in Myotubes (β-galactosidase activity relative to DMSO) ([3]; 10 uM): 1.102; CMV-LACZ in Myotubes (β-galactosidase activity relative to DMSO) ([3]; 20 uM): 1.153; CMV-LACZ in Myotubes (β-galactosidase activity relative to DMSO) ([3]; 40 uM): 1.256
O=C(Nc1ccc(N2CCN(C(=O)c3ccccc3F)CC2)cc1)c1cncc(Br)c1 [MLS001060533-01]	–	–	–	–	–	–	–	–	–	–	–	–	–	–	–	–	0.9049	0.9915	1.033	1.101	Burkin Assay in Myoblasts, value relative to DMSO ([1]; 20 uM): 1.397; Burkin Assay in Myoblasts, value relative to DMSO ([1]; 40 uM): 1.22; Burkin Assay in Myotubes (signal relative to DMSO) ([2]; 0.5 uM): 0.9464; Burkin Assay in Myotubes (signal relative to DMSO) ([2]; 1 uM): 1.208; Burkin Assay in Myotubes (signal relative to DMSO) ([2]; 5 uM): 1.318; Burkin Assay in Myotubes (signal relative to DMSO) ([2]; 10 uM): 1.52; Burkin Assay in Myotubes (signal relative to DMSO) ([2]; 20 uM): 1.342; Burkin Assay in Myotubes (signal relative to DMSO) ([2]; 40 uM): 1.117; CMV-LACZ in Myotubes (β-galactosidase activity relative to DMSO) ([3]; 5 uM): 0.8358; CMV-LACZ in Myotubes (β-galactosidase activity relative to DMSO) ([3]; 10 uM): 0.7789; CMV-LACZ in Myotubes (β-galactosidase activity relative to DMSO) ([3]; 20 uM): 0.7716; CMV-LACZ in Myotubes (β-galactosidase activity relative to DMSO) ([3]; 40 uM): 0.6871
